Measurements from US20080051419A1, “AMINE DERIVATIVES USEFUL AS ANTICANCER AGENTS” (PFIZER INC., priority 2006, published 2008).
Like-named read-outs stand apart in the source and are kept apart here.

Columns and labels:
Akt1 = target: T1, Akt1 (Homo sapiens, UniProt P31749, S473D); experiment: Akt1 kinase assay, fluorescence polarization (IMAP); format: biochemical
T1 construct: The version of Akt used in these studies lacks the pleckstrin homology (PH) domain
Procedure, shortened: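 His-tagged Akt1 lacking the PH domain, Thr308-prephosphorylated, 1.5 ng per reaction, with 4 μM ATP and 40 nM TAMRA-Crosstide (solution concentrations) in Tris pH 7.5/MgCl2/DTT buffer. Incubated 30 min at ambient temperature; IMAP fluorescence polarization read (544/615 nm). IC50 after subtraction of no-enzyme background.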

[1] = target: T2, PKA, catalytic subunit, recombinant (Homo sapiens, UniProt P17612); experiment: PKA IMAP Kinase Assay; format: biochemical; conditions: for Selectivity Ratio (PKA/Akt): PKA IC50 divided by Akt IC50; for IC50: Table 6, selectivity study
T2 construct: purchased Upstate 14-440
Method: The PKA Kinase assay is used to measure the selectivity of the compounds of formula I for PKA kinase as discussed below. The PKA activity of the compounds of formula I was determined using the PKA IMAP® Kinase Assay (G7096A).
Materials: • 1) Kinase Reaction Buffer (RB):—10 mM Tris-HCl, pH 7.5, 10 mM MgCl2, 0.1 mM EGTA, 0.01% Triton-X 100 (Sigma #X-100); 1 mM DTT (N.E. Biolabs #B7705S) added fresh • 2) ATP (Sigma #5394) 10 mM stock in H2O, −20° C. • 3) 20 μM working stock TAMRA Kemptide (TK. Molecular Devices #R7332): [N-Term]TMRS-Leu-Arg-Arg-Ala-Ser-Leu-Gly-OH[C-Term] • 4) PKA, catalytic subunit, recombinant (Upstate #14-440). 5 ug/25 ul lot 22361AU • 5) DMSO (Baker #9224-01) • 6) IMAP® Progressive Express Screening Kit for IPP (Molecular Devices #R8124) Includes IMAP® Progressive Beads and Binding Buffer • 7) 96-well ½ area plates, black polystyrene, Costar #3694 • 8) 96-well round bottom polypropylene plates, Costar #9667
NOTE: Protect all Tamra-Containing Reagents from Light.
• 1) Prepare the 1× Reaction Buffer (RB) by fresh addition of DTT to 1 mM • 2) For single point testing, make up compound dilution plate as follows: “96 well plates; Row Empty: empty; 84 cmpds” are added to the remaining wells at […]. • 3) For 150 determination: To column 2 of polypropylene plate add 100 ul 100% DMSO; to all other wells add 60 ul 100% DMSO. • 4) Pipet 2 ul 10 mM stock compound to column 2; mix well • 5) Serially dilute 1:3 across from column 2-11, transferring 30 ul to next well and mixing well. • 6) Leave column 12 for zero compound (control signal) • 7) For Single Point testing (10 uM final) add 1 ul 10 mM compound to 100 ul DMSO; mix; transfer 5 ul to 120 ul RB; mix; transfer 5 ul to Assay Plate • 8) For 150 determination: Make up compound RB dilution plate: 60 μl/well RB in 96-well polypropylene round bottom plate. • 9) Transfer compounds to assay plate as follows: Mix DMSO dilutions; transfer 15 μl to 60 μl RB; transfer 5 μl/well to assay plates (single points, triplicate plates), delivering carefully to the bottom of the well; repeat for each dilution up to 10 μM. • 10) To run PKA Reactions: Make up ATP/KT solution; 4 uM ATP, 200 nM KT ([…], 100 nM KTfinal) • 11) Pipet 10 μl KT/ATP to wells containing compound. • 12) Make up protein solution in RB and determine the protein concentration. • 13) Deliver 5 μl protein solution to all wells except A1-H1, delivering to the upper region of the side of the well; Add 5 μl RB to A1-H1 (these are the 0 protein background controls) • 14) Gently tap the plate to ensure all volumes get to the bottom. Cover with foil lid. • 15) Incubate RT on bench top 30 minutes. • 16) Add 60 μl IMAP® beads in IMAP® Progressive binding buffer (100% A) diluted 1:1000 • 17) Read on VICTOR™ plate reader (protocol LissieTAMRA2) with the following settings: CW lamp filter 544 nm; emission filter 615 nm. Some adjustments may be made to the plate reader protocol depending on the reader and available filters. • 18) Use XLDA to calculate IC50s.

[2] = Table 6, selectivity study, read-out: Akt Kinase Activity
[3] = Table 1, concentration bins, read-out: Concentration Range at which exemplary compounds of formula I inhibit Akt kinase activity
[4] = average Akt kinase activity (IC50), read-out: Avg Akt kinase, μM (50% inhibition)
[5] = read-out: Avg Akt kinase, μM (50% inhibition)
[6] = Table 3, read-out: Avg Akt kinase, μM (50% inhibition)

T1 sequence (P31749 118-480 S473D limits assumed, species assumed): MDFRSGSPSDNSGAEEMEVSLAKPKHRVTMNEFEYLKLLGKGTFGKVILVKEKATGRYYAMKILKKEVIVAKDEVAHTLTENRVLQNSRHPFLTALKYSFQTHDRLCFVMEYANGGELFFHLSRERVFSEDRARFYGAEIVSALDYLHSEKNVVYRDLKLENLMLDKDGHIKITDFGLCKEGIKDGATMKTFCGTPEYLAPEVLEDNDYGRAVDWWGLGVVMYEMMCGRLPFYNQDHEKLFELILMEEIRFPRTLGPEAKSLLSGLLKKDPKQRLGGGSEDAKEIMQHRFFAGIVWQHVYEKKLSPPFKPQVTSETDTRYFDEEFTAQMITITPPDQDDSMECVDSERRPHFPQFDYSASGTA

Row | Molecule | IC50 (Akt1; [3]) [µM] | IC50 (Akt1; [4]) [µM] | other results
1 | Cc1c[nH]c2ncnc(N3CCC(N)(CNc4ccc(Cl)cc4)CC3)c12 [BB, 4-(4-chloro(phenylamino)methyl)-1-(5-methyl-7H-pyrrolo[2,3-d]pyrimidin-4-yl)piperidin-4-amine, reference compound] | – | – | IC50 (Akt1; [2]): 0.0459 µM; Selectivity Ratio (PKA/Akt) [1]: 0.57; IC50 [1]: 26.3 nM
2 | CCc1c[nH]c2ncnc(N3CC[C@](N)(CNC(=O)c4cccc(F)c4Cl)C3)c12 [Example 125, N-{[(3S)-3-amino-1-(5-ethyl-7H-pyrrolo[2,3-d]pyrimidin-4-yl)pyrrolidin-3-yl]methyl}-2-chloro-3-fluorobenzamide] | 0.0101 to 0.1 | 0.0139 | –
3 | Cc1c[nH]c2ncnc(N3CC[C@](N)(CNC(=O)c4c(F)cccc4F)C3)c12 [Example 126, N-{[(3S)-3-amino-1-(5-methyl-7H-pyrrolo[2,3-d]pyrimidin-4-yl)pyrrolidin-3-yl]methyl}-2,6-difluorobenzamide] | 0.0101 to 0.1 | 0.0199 | –
4 | Cc1ccccc1C(=O)NC[C@@]1(N)CCN(c2ncnc3[nH]cc(C)c23)C1 [Example 127, N-{[(3S)-3-amino-1-(5-methyl-7H-pyrrolo[2,3-d]pyrimidin-4-yl)pyrrolidin-3-yl]methyl}-2-methylbenzamide] | 0.0101 to 0.1 | 0.0362 | –
5 | CCc1c[nH]c2ncnc(N3CC[C@](N)(CNC(=O)c4ccccc4Cl)C3)c12 [Example 128] | 0.0101 to 0.1 | 0.0147 | –
6 | N[C@]1(CNC(=O)c2ccc(F)c(F)c2)CCN(c2ncnc3[nH]cc(Cl)c23)C1 [Example 129, N-{[(3S)-3-amino-1-(5-chloro-7H-pyrrolo[2,3-d]pyrimidin-4-yl)pyrrolidin-3-yl]methyl}-3,4-difluorobenzamide] | 0.00251 to 0.01 | 0.00334 | –
7 | N[C@]1(CNC(=O)c2c(F)cccc2F)CCN(c2ncnc3[nH]cc(Cl)c23)C1 [Example 130] | 0.00251 to 0.01 | 0.00906 | –
8 | Cc1ccccc1C(=O)NC[C@@]1(N)CCN(c2ncnc3[nH]cc(Cl)c23)C1 [Example 131] | 0.00251 to 0.01 | 0.01 | –
9 | CCc1c[nH]c2ncnc(N3CC[C@](N)(CNC(=O)c4c(F)ccc(F)c4F)C3)c12 [Example 132] | 0.0101 to 0.1 | 0.0175 | –
10 | CCc1c[nH]c2ncnc(N3CC[C@](N)(CNC(=O)c4cccc(Cl)c4)C3)c12 [Example 133] | 0.00251 to 0.01 | 0.00447 | –
11 | Cc1c[nH]c2ncnc(N3CCC(N)(CNc4ccccc4)C3)c12 (stereo not shown) [Example 199, 3-((phenylamino)methyl)-1-(5-methyl-7H-pyrrolo[2,3-d]pyrimidin-4-yl)pyrrolidin-3-amine] | – | – | IC50 (Akt1; [2]): 0.162 µM; Selectivity Ratio (PKA/Akt) [1]: 15.93; IC50 [1]: 2580 nM
12 | Cc1c[nH]c2ncnc(N3CCC(N)(CNc4ccc(Cl)cc4)C3)c12 (stereo not shown) [Example 200, 3-(4-chloro(phenylamino)methyl)-1-(5-methyl-7H-pyrrolo[2,3-d]pyrimidin-4-yl)pyrrolidin-3-amine] | – | – | IC50 (Akt1; [2]): 0.118 µM; Selectivity Ratio (PKA/Akt) [1]: 2.36; IC50 [1]: 279 nM
13 | (E)-3-(3-trifluoromethyl)styryl)-1-(5-methyl-7H-pyrrolo[2,3-d]pyrimidin-4-yl)-3-amine [Example 68] | – | 1.14 | –
14 | N-{[3-amino-1-(1H-pyrrolo[2,3-b]pyridin-4-yl)pyrrolidin-3-yl]methyl}-5-chloropyrimidin-2-amine [Example 59] | – | – | IC50 (Akt1; [6]): 0.0035 µM
15 | N-{[3-amino-1-(5-methyl-7H-pyrrolo[2,3-d]pyrimidin-4-yl)pyrrolidin-3-yl]methyl}pyrimidin-2-amine [Example 58] | – | – | IC50 (Akt1; [6]): 0.123 µM

Further lines, with some results ahead:

Row | IC50 (Akt1; [3]) [µM] | IC50 (Akt1; [4]) [µM] | Molecule | other results
16 | 0.0101 to 0.1 | – | CNC1(CNC(=O)c2ccccc2)CCN(c2ncnc3[nH]cc(Cl)c23)C1 (stereo not shown) [Example 194] | IC50 (Akt1; [5]): 0.0897 µM
17 | 0.101 to 10 | – | Cc1c[nH]c2ncnc(N3CCC(N)(CN(CCN(C)C)C(=O)Nc4ccccc4)C3)c12 (stereo not shown) [Example 195, 1-{[3-amino-1-(5-methyl-7H-pyrrolo[2,3-d]pyrimidin-4-yl)pyrrolidin-3-yl]methyl}-1-[2-(dimethylamino)ethyl]-3-phenylurea] | IC50 (Akt1; [5]): 0.141 µM
18 | 0.101 to 10 | – | Cc1c[nH]c2ncnc(N3CCC(N)(CN(C)C(=O)c4ccc(Cl)cc4)C3)c12 (stereo not shown) [Example 196, N-((3-amino-1-(5-methyl-7H-pyrrolo[2,3-d]pyrimidin-4-yl)pyrrolidin-3-yl)methyl)-4-chloro-N-methylbenzamide] | IC50 (Akt1; [5]): 0.123 µM
19 | 0.101 to 10 | – | Cc1c[nH]c2ncnc(N3CCC(N)(CN(C)C(=O)c4ccccc4F)C3)c12 (stereo not shown) [Example 197, N-((3-amino-1-(5-methyl-7H-pyrrolo[2,3-d]pyrimidin-4-yl)pyrrolidin-3-yl)methyl)-2-fluoro-N-methylbenzamide] | IC50 (Akt1; [5]): 0.148 µM
20 | 0.0101 to 0.1 | – | Cc1c[nH]c2ncnc(N3CCC(N)(CNS(=O)(=O)c4c(F)cccc4F)C3)c12 (stereo not shown) [Example 198, N-{[3-amino-1-(5-methyl-7H-pyrrolo[2,3-d]pyrimidin-4-yl)pyrrolidin-3-yl]methyl}-2,6-difluorobenzenesulfonamide] | IC50 (Akt1; [5]): 0.00267 µM
